Test results: publication PMC5177629, “Selective Estrogen Receptor Modulators: Cannabinoid Receptor Inverse Agonists with Differential CB1 and CB2 Selectivity” (Frontiers in Pharmacology, 2016)
Read-outs that look alike come from different tables or passages of the source.

Assays:
[1] = target: T1, human cannabinoid type-2 receptors (hCB2) (Homo sapiens, UniProt P34972); experiment: Antagonism of CP-55,940 inhibition of adenylyl cyclase, intact CHO-hCB2 cells; type: cell-based; conditions: for IMAX of CP-55,940 after pre-incubation with the drug / type of antagonism at hCB2Rs: CHO-hCB2 cells; for IMAX of CP-55,940 after pre-incubation with the drug: pre-incubation 30 min: OSP, NAF 10 μM, RAL, BAZ 2 μM, AM-630 1 μM; for type of antagonism at hCB2Rs: CP-55,940 inhibition of adenylyl cyclase
T1 construct: expressed in transfected cells; host or cells: CHO cells (CHO-hCB2), membranes or intact cells
T1 sequence (P34972 whole entry): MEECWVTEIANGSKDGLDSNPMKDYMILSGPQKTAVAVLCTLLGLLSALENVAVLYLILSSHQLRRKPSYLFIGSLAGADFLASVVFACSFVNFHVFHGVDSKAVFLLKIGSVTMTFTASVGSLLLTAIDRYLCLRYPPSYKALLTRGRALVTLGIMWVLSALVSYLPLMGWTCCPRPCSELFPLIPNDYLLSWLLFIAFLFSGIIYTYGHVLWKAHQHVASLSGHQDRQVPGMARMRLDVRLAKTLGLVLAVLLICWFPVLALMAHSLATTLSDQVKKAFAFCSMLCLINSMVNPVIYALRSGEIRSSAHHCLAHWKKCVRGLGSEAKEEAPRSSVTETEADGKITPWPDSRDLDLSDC
Description: (§1) Briefly, cells cultured between passages 4 and 15 were seeded into 24-well plates at a concentration of 6.5 million cells per plate and incubated overnight in a humidified incubator maintained at 37°C and 5% CO2. Growth media was removed the next day and replaced with media containing […] [^3H]adenine, 0.9g/L NaCl, and 0.5 mM isobutyl-methyl-xanthine (IBMX) for 2–3 h. Radioactive media was then removed and each well treated with 0.5 ml of varying concentrations of SERM compounds in a Krebs-Ringer-HEPES solution (10 mM HEPES, 110 mM NaCl, 25 mM Glucose, 55 mM Sucrose, 5 mM KCl, 1 mM MgCl2, 1.8 mM CaCl2, pH 7.4) containing 0.5 mM IBMX and 10 μM forskolin. Plates were then floated in a 37°C water bath for 15 min before reactions were terminated by addition of 50 μL of 2.2 N HCl to each well.
Reactions were then terminated by adding 50 μL of 2.2 N HCl to each well. [^3H]cAMP was isolated using alumina column chromatography and radioactivity quantified following addition of 10 mls of scintiverseTM BD cocktail scintillation fluid (Fisher Scientific, Pittsburg, PA, USA) by liquid scintillation spectrophotometry (Tri Carb 2100 TR Liquid Scintillation Analyzer, Packard Instrument Company, Meriden, CT, USA).
(§2) Statistical analyses were conducted by utilizing GraphPad Prism v6.0g (GraphPad Software, Inc.; San Diego, CA, USA). IC50 values from competition receptor binding curves were derived by non-linear regression. […] Non-linear regression analysis of concentration-effect curves was also used to determine potency (ED50 or IC50) and efficacy (Emax or Imax) for modulation of GTPγS and adenylyl cyclase activity, respectively. All IC50, EC50, Ki, and Kb values were converted to pEC50, pIC50, pKi, and pKb values in order to permit use of parametric statistical analyses. For all experiments comparing three or more values, an one-way ANOVA was employed, followed by Dunnett’s or Tukey’s post hoc tests. For comparisons of two values, an unpaired t-test was utilized. To determine significant radioligand displacement or modulation of G-protein activity compared to basal levels, a one-sample t-test was employed.
IC50 and Kb values were converted to pIC50 and pKb values (pIC50 = -Log[IC50] or pKb = -Log[Kb], respectively) to allow use of parametric statistics for comparison.

[2] = target: T1, human cannabinoid type-2 receptors (hCB2); experiment: [35S]GTPγS binding, CHO-hCB2 membranes; type: biochemical; conditions: for IMAX, GTPγS Binding (% Basal) CHO-hCB2: maximal reduction of basal G-protein activity
Description: In short, pellets were thawed on ice, combined in a 40 ml glass Dounce homogenizer and homogenized in 20 ml of cold buffer (50 mM HEPES at pH 7.4, 3 mM MgCl2, and 1 mM EGTA) using 10 strokes. Homogenates were then centrifuged at 40,000 × g for 10 min at 4°C. After discarding the supernatant, pellets were homogenized and centrifuged twice more. Final pellets were re-suspended in ice-cold 50 mM HEPES, pH 7.4, aliquoted and stored at -80°C for future use. Protein concentration was determined the same day, prior to freezing, using BCA^TM Protein Assay (Thermo Fisher Scientific, Waltham, MA, USA).
Non-specific binding was defined by radioactivity remaining in the presence of 10 μM of non-radioactive GTPγS. All reactions were incubated for 30 min at 30°C, terminated by filtration through Whatman GF/B glass fiber filters (Brandel, Inc.) and followed by four 4 ml washes of ice cold filtration buffer (50 mM HEPES, pH 7.4) containing 0.1% bovine serum albumin. Filter punches of individual samples were placed in scintillation vials containing 4 mls of ScintiverseTM BD cocktail scintillation fluid (Fisher Scientific, Pittsburg, PA, USA). Final counts were determined using liquid scintillation spectrophotometry (Tri Carb 2100 TR Liquid Scintillation Analyzer, Packard Instrument Company, Meriden, CT, USA) after overnight incubation.
as §2
CBRs are coupled to Gi/Go type G-proteins. Therefore, binding of agonists to CBRs leads to G-protein activation, antagonists produce no effect, and inverse agonists reduce basal G-protein activity produced by constitutively active receptors. SERMs were screened by examining the ability of a single receptor saturating concentration (10 μM) to modulate G-protein activity in membranes prepared from CHO-hCB1 and CHO-hCB2 cells. G-protein activation was quantified using employing [^35S]GTPγS, a non-hydrolyzable analog of GTP, that irreversibly binds to the G-proteins when activated.

[3] = target: T1, human cannabinoid type-2 receptors (hCB2); experiment: Adenylyl cyclase assay (forskolin-stimulated cAMP), intact CHO-hCB2 cells; type: cell-based; conditions: for Emax: elevation of cAMP, read-out: EMAX, Intracellular [3H]cAMP; for EC50: increase of cAMP, 10 μM forskolin, read-out: EC50, Intracellular [3H]cAMP
Description: as §1, §2
To provide a second measure of intrinsic activity, the ability of SERMs to modulate intracellular levels of cAMP in intact cells was examined (Figure 6). CBRs couple to Gi/Go-proteins, and thus cannabinoid agonists inhibit activity of the downstream intracellular effector adenylyl cyclase, reducing intracellular cAMP levels.

[4] = reduction of basal G-protein activity, CHO-hCB2 membranes, read-out: IC50, GTPγS Binding CHO-hCB2

Structure (SMILES)	IMAX of CP-55,940 after pre-incubation with the drug [1]	type of antagonism at hCB2Rs [1]	IMAX, GTPγS Binding (% Basal) CHO-hCB2 [2]	IC50 [2, 4] [nM]	Emax [3] [%]	EC50 [3] [nM]	Kb ([1]; intact CHO-hCB2 cells, mean ± SEM, read-out: pKb, CHO-hCB2 (converted)) [nM]	IC50 ([2]; CHO-hCB2 membranes, mean ± SEM, read-out: pIC50, GTPγS Binding CHO-hCB2 (converted)) [nM]	Kb [1] [nM]	reduction of G-protein activity, hCB2Rs ([2]; CHO-hCB2 membranes, 10 μM) [%]	Kb ([1]; read-out: Kb (antagonist dissociation constant), CHO-hCB2) [nM]
Cc1c(-c2ccc(O)cc2)n(Cc2ccc(OCCN3CCCCCC3)cc2)c2ccc(O)cc12 [BAZ, bazedoxifene]	28.8 ± 3.0^∗∗ %	insurmountable antagonist	34.0 ± 1.0^b,∗ %	71.6	352 ± 14	1980					
COc1ccc2c(c1)CCC(c1ccccc1)=C2c1ccc(OCCN2CCCC2)cc1 [NAF, nafoxidine]	32.3 ± 2.3%	surmountable antagonists	38.7 ± 1.2^a,b,∗∗ %				337	344			
OCCOc1ccc(/C(=C(/CCCl)c2ccccc2)c2ccccc2)cc1 [OSP, ospemifene]	31.7 ± 2.3%	surmountable antagonists	39.7 ± 2.4^a,∗∗ %	558	279 ± 17	1440			1260	~30	
O=C(c1ccc(OCCN2CCCCC2)cc1)c1c(-c2ccc(O)cc2)sc2cc(O)ccc12 [RAL, raloxifene]	33.0 ± 1.3%	surmountable antagonists	34.3 ± 2.2^b,∗∗ %	87.1	234 ± 21	873					66.5
